{
  "source": "patent US7250410B2",
  "about": "“Cyclic nucleotide phosphodiesterase inhibitors, preparation and uses thereof” (Via Pharmaceuticals, Inc., priority 2001, dated 2007)",
  "data": [
    {"target": "PDE4", "assay": "Inhibition of PDE4, radioenzymatic phosphodiesterase assay", "assay_type": "biochemical, bovine", "conditions": "Table 2, formula (XXII); 1 μM cyclic AMP", "in_short": "(§1)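 PDE4 partially purified from bovine aortic media by 105,000 g centrifugation and anion-exchange chromatography with an NaCl gradient. Activity measured radioenzymatically: product nucleoside separated from nucleotides by anion exchange and counted by liquid scintillation.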", "units": {"IC50": "µM"}, "values": [
      {"compound": "COc1cc2c(cc1OC)C(c1ccc(Br)cc1)=NCC(=O)N2", "note": "[XXIIaf, 5-(4-bromophenyl)-7,8-dimethoxy-1,3-dihydro-2H-1,4-benzodiazepin-2-one]", "IC50": 15},
      {"compound": "CCOc1cc2c(cc1OCC)C(c1ccccc1)=NC(Cc1ccccc1)C(=O)N2", "note": "(stereo not drawn) [XXIIaj, 3-benzyl-7,8-diethoxy-5-phenyl-1,3-dihydro-2H-1,4-benzodiazepin-2-one]", "IC50": 4.4},
      {"compound": "COc1cc2c(cc1OC)C(c1cccc(Br)c1)=NCC(=O)N2", "note": "[XXIIak, 5-(3-bromophenyl)-7,8-dimethoxy-1,3-dihydro-2H-1,4-benzodiazepin-2-one]", "IC50": 13},
      {"compound": "COc1cc2c(cc1OC)C(c1ccccc1)=NC(c1ccccc1)C(=O)N2", "note": "(stereo not drawn) [XXIIaz, 7,8-dimethoxy-3,5-diphenyl-1,3-dihydro-2H-1,4-benzodiazepin-2-one]", "IC50": 9.5},
      {"compound": "CCOc1cc2c(cc1OC)C(c1ccccc1)=NC(c1ccccc1)C(=O)N2", "note": "(stereo not drawn) [XXIIba, 3,5-diphenyl-8-ethoxy-7-methoxy-1,3-dihydro-2H-1,4-benzodiazepin-2-one]", "IC50": 6.7},
      {"compound": "CCOc1cc2c(cc1OC)C(c1ccccc1)=NC(Cc1ccccc1)C(=O)N2", "note": "(stereo not drawn) [XXIIbb, 3-benzyl-8-ethoxy-7-methoxy-5-phenyl-1,3-dihydro-2H-1,4-benzodiazepin-2-one]", "IC50": 15}
    ]},
    {"system": "PDE4", "assay": "Inhibition of PDE4, radioenzymatic phosphodiesterase assay", "assay_type": "biochemical, bovine", "conditions": "Table 2, formula (XXII); compound at 10 μM", "in_short": "as §1", "units": {"PDE4 percentage inhibition at 10 μM": "%"}, "values": [
      {"compound": "COc1cc2c(cc1OC)C(c1ccccc1)=NCC(=O)N2", "note": "[XXIIaa, 7,8-dimethoxy-5-phenyl-1,3-dihydro-2H-1,4-benzodiazepin-2-one]", "PDE4 percentage inhibition at 10 μM": 25.8},
      {"compound": "O=C1CN=C(c2ccc(Br)cc2)c2ccc(Br)cc2N1", "note": "[XXIIab, 8-bromo-5-(4-bromophenyl)-1,3-dihydro-2H-1,4-benzodiazepin-2-one]", "PDE4 percentage inhibition at 10 μM": 10},
      {"compound": "O=C1CN=C(c2cccc(C(F)(F)F)c2)c2cc(I)ccc2N1", "note": "[XXIIac, 7-iodo-5-[3-(trifluoromethyl)phenyl]-1,3-dihydro-2H-1,4-benzodiazepin-2-one]", "PDE4 percentage inhibition at 10 μM": 35},
      {"compound": "COc1cc2c(cc1OC)C(c1ccccc1)=NC(CC(C)C)C(=O)N2", "note": "(stereo not drawn) [XXIIad, 7,8-dimethoxy-3-isobutyl-5-phenyl-1,3-dihydro-2H-1,4-benzodiazepin-2-one]", "PDE4 percentage inhibition at 10 μM": 14.9},
      {"compound": "COc1ccc2c(c1)C(c1cccc(C(F)(F)F)c1)=NCC(=O)N2", "note": "[XXIIae, 7-methoxy-5-[3-(trifluoromethyl)phenyl]-1,3-dihydro-2H-1,4-benzodiazepin-2-one]", "PDE4 percentage inhibition at 10 μM": 21},
      {"compound": "O=C1CN=C(c2ccccc2)c2cc3c(cc2N1)OCCO3", "note": "[XXIIah, 10-phenyl-2,3,6,8-tetrahydro-7H-[1,4]dioxino[2,3-h][1,4]benzodiazepin-7-one]", "PDE4 percentage inhibition at 10 μM": 21.2},
      {"compound": "COc1cc2c(cc1OC)C(c1ccccc1Br)=NCC(=O)N2", "note": "[XXIIal, 5-(2-bromophenyl)-7,8-dimethoxy-1,3-dihydro-2H-1,4-benzodiazepin-2-one]", "PDE4 percentage inhibition at 10 μM": 23.9},
      {"compound": "COc1ccc2c(c1)NC(=O)CN=C2c1ccccc1", "note": "[XXIIan, 8-methoxy-5-phenyl-1,3-dihydro-2H-1,4-benzodiazepin-2-one]", "PDE4 percentage inhibition at 10 μM": 12.1},
      {"compound": "COc1ccc2c(c1)C(c1ccccc1)=NCC(=O)N2", "note": "[XXIIao, 7-methoxy-5-phenyl-1,3-dihydro-2H-1,4-benzodiazepin-2-one]", "PDE4 percentage inhibition at 10 μM": 11.5},
      {"compound": "COc1cc2c(cc1OC)C(c1ccccc1)=NC(Cc1ccccc1)C(=O)N2", "note": "(stereo not drawn) [XXIIap, 3-benzyl-7,8-dimethoxy-5-phenyl-1,3-dihydro-2H-1,4-benzodiazepin-2-one]", "PDE4 percentage inhibition at 10 μM": 36.10},
      {"compound": "COc1cc2c(cc1OC)C(c1ccccc1)=NC(C)C(=O)N2", "note": "(stereo not drawn) [XXIIaq, 7,8-dimethoxy-3-methyl-5-phenyl-1,3-dihydro-2H-1,4-benzodiazepin-2-one]", "PDE4 percentage inhibition at 10 μM": 26.2},
      {"compound": "COc1cc2c(cc1OC)C(c1ccccc1)=NC(Cc1c[nH]cn1)C(=O)N2", "note": "(stereo not drawn) [XXIIar, 7,8-dimethoxy-3-(1H-imidazol-4-ylmethyl)-5-phenyl-1,3-dihydro-2H-1,4-benzodiazepin-2-one]", "PDE4 percentage inhibition at 10 μM": 49.3},
      {"compound": "COc1cc2c(cc1OC)C(c1ccccc1)=NC(Cc1c[nH]c3ccccc13)C(=O)N2", "note": "(stereo not drawn) [XXIIas, 7,8-dimethoxy-3-(1H-indol-3-ylmethyl)-5-phenyl-1,3-dihydro-2H-1,4-benzodiazepin-2-one]", "PDE4 percentage inhibition at 10 μM": 41.3},
      {"compound": "COc1cc2c(cc1OC)C(c1ccccc1)=NC(CCSC)C(=O)N2", "note": "(stereo not drawn) [XXIIat, 7,8-dimethoxy-3-(2-methylthioethyl)-5-phenyl-1,3-dihydro-2H-1,4-benzodiazepin-2-one]", "PDE4 percentage inhibition at 10 μM": 29},
      {"compound": "COc1cc2c(cc1OC)C(c1ccccc1)=N[C@@H](Cc1ccccc1)C(=O)N2", "note": "[XXIIau, (S)-3-benzyl-7,8-dimethoxy-5-phenyl-1,3-dihydro-2H-1,4-benzodiazepin-2-one]", "PDE4 percentage inhibition at 10 μM": 42.6},
      {"compound": "CCCCN(Cc1ccccc1)C(=O)OC1N=C(c2ccccc2)c2cc(OC)c(OC)cc2NC1=O", "note": "[XXIIav, (7,8-dimethoxy-5-phenyl-2-oxo-2,3-dihydro-1H-1,4-benzodiazepin-3-yl)benzyl(S)-butylcarbamate]", "PDE4 percentage inhibition at 10 μM": 23},
      {"compound": "COc1cc2c(cc1OC)C(c1ccccc1)=N[C@@H](CCCCN)C(=O)N2", "note": "[XXIIaw, (S)-3-(4-aminobutyl)-7,8-dimethoxy-5-phenyl-1,3-dihydro-2H-1,4-benzodiazepin-2-one]", "PDE4 percentage inhibition at 10 μM": 4},
      {"compound": "COc1cc2c(cc1OC)C(c1ccccc1)=N[C@@H](CCCCNC(C)=O)C(=O)N2", "note": "[XXIIax, (S)-N-[4-(7,8-dimethoxy-2-oxo-5-phenyl-2,3-dihydro-1H-1,4-benzodiazepin-3-yl)butyl]acetamide]", "PDE4 percentage inhibition at 10 μM": 6},
      {"compound": "COc1cc2c(cc1OC)C(c1ccccc1)=N[C@@H](CCCCNC(=N)N)C(=O)N2.O=C(O)C(F)(F)F.O=C(O)C(F)(F)F", "note": "[XXIIay, N-[4-(7,8-dimethoxy-2-oxo-5-phenyl-2,3-dihydro-1H-1,4-benzodiazepin-3-yl)butyl]guanidinium (S)-bis trifluoroacetate]", "PDE4 percentage inhibition at 10 μM": 19.6},
      {"compound": "CCOc1cc2c(cc1OC)NC(=O)CN=C2c1ccccc1", "note": "[XXIIbc, 5-phenyl-7-ethoxy-8-methoxy-1,3-dihydro-2H-1,4-benzodiazepin-2-one]", "PDE4 percentage inhibition at 10 μM": 10}
    ]},
    {"target": "PDE4", "assay": "Inhibition of PDE4, radioenzymatic phosphodiesterase assay", "assay_type": "biochemical, bovine", "conditions": "Table 3, formula (II); 1 μM cyclic AMP", "in_short": "as §1", "units": {"IC50": "µM"}, "values": [
      {"compound": "CCOc1cc2c(cc1OC)C(c1ccccc1)=NC(c1ccccc1)C(=O)N2CC", "note": "(stereo not drawn) [IIdk, 3,5-diphenyl-8-ethoxy-1-ethyl-7-methoxy-1,3-dihydro-2H-1,4-benzodiazepin-2-one]", "IC50": 1.1},
      {"compound": "[(7,8-dimethoxy-1-ethyl-2-oxo-2,3-dihydro-1H-1,4-benzodiazepin-3-yl)benz-2-yl]carboxamide [IIci]", "IC50": 1.45}
    ]},
    {"system": "PDE4", "assay": "Inhibition of PDE4, radioenzymatic phosphodiesterase assay", "assay_type": "biochemical, bovine", "conditions": "Table 3, formula (II); compound at 10 μM", "in_short": "as §1", "units": {"PDE4 percentage inhibition at 10 μM": "%"}, "values": [
      {"compound": "COc1ccc2c(c1)C(c1ccccc1)=NCC(=O)N2C", "note": "[IIdl, 7-methoxy-1-methyl-5-phenyl-1,3-dihydro-2H-1,4-benzodiazepin-2-one]", "PDE4 percentage inhibition at 10 μM": 34.6},
      {"compound": "COc1ccc2c(c1)N(C)C(=O)CN=C2c1ccccc1", "note": "[IIdm, 8-methoxy-1-methyl-5-phenyl-1,3-dihydro-2H-1,4-benzodiazepin-2-one]", "PDE4 percentage inhibition at 10 μM": 16}
    ]}
  ]
}
